One experiment deals with VEGF. The conditions noted are these: animal studies; cited from earlier work.
A further experiment relates to ovarian cancer. The conditions noted are these: in 10 days, animal studies; cited from earlier work.
In experiment [1] the test system is pyramidal neurons in the medial prefrontal cortex. The settings on record: after 12 days of continuous administration; cited from earlier work.
Experiment [2] has as its system person with stage 4 ovarian cancer. Description: Example 6: person with stage 4 ovarian cancer. The settings on record: with Adderall XR. The experiment is classed as in vivo, human. From the text:
A person presents with stage 4 ovarian cancer, skin picking, irritable bowel syndrome, PMS, allergies, and a tonsillectomy. They are BRCA1 positive and lost their parent due to breast cancer. Other family members have succumbed to breast cancer, pancreatic cancer, and colon cancer. They are screened for ADHD and is started on Adderall XR and titrated up to 15 mgs three times a day. They are tapered off Prozac for depression. Six weeks later they state that their depression is gone and their energy level is back to normal and their strength is retuning. Their nausea is also gone. […] When they ran out of vitamin B6, their skin picking returns in one week, but stops the day they resume taking vitamin B6.
Catecholamines may interact with genes involved in cancer in certain tissues. BRCA1 knocks p21, p53, and RAD51 out. Genes can be turned on and off based on signaling. Their amino acid profile fits with a defect in pyridoxine-5′-phosphate oxidase which is located on […]. This is beside BRCA1 on chromosome 17. It is possible the patient has a defect in SLC6A4 not ADHD 2 on 17p11.2. 17p11.2 is the site of serine hydroxymethyltransferase. Additionally, it is possible that second messengers that are inactivated by BRCA-1 are responsible for lowering their catecholamines. […]

In experiment [3] the test system is obese person diagnosed with ADHD. Description: Example 5: treatment of obese person with ADHD. The experiment is classed as in vivo, human. The conditions noted are these: with Adderall XR; amino acid supplements for 4 months then stopped. An excerpt:
An obese person presents complaining of depression. They are on Lipitor for high cholesterol and has a heart rate of 116 and a blood pressure of 166/112. They also have “heart burn”. They are diagnosed with ADHD and titrated up to 15 mgs of Adderall XR three times a day. Their heart rate decreases to 100 at the first visit four weeks later and after 8 weeks it is 88. Based on lab reports, their vitamin B6 level is elevated at 56 and they are deficient in arginine, ornithine, histidine, threonine, and taurine along with other amino acids. They also have an elevated IL-6 level. Their vitamin D3 level is also very low. They are started on P-5-P and is supplemented with the aforementioned amino acids to help replenish their body. Their taurine level is 18 and normal is at 54. They are a candidate for developing a cardiac arrhythmia.
[…] Their blood pressure and heart rate continue to decline and they begin to lose weight despite having a normal appetite. […] Their depression is gone and they are dreaming about becoming a lawyer. They remain on Adderall XR, however their dose is decreased to 10 mgs three times a day. They remain on P-5-P. The patient's amino acid profile is normal and their CRP is normal. CRP is an indirect measure of IL-6 and is impacted by low levels of P-5-P.

For experiment [4], the system named is patient with OCD and ADHD, and their child. Description: Example 4: family with history of ADHD, OCD and cancer. The experiment is classed as in vivo, human. From the text: The 5HT2A receptor has been associated with OCD, Seasonal Affective Disorder, Alcoholism, and a predisposition toward Schizophrenia. The gene for this receptor is found on chromosome 13. A patient presents with OCD and ADHD. Two of their children also are diagnosed with OCD and ADHD. […] They test positive for BRCA2 which is also found on chromosome 13 in the same region as the gene for the 5HT2A receptor.
Lowered catecholamines lead to slightly elevated prolactin and can alter GnRH. Elevated GnRH leads to spikes in estrogen and progesterone and may eventually lead to premature ovarian failure along with alterations in inflammation and co-factors. Elevated interleukins lead to increased free radical production and damage to DNA. Lowered dopamine would allow for angiogenesis. Elevated interleukins could induce CREB and increase the expression of ICAM and VCAM. BRCA2 lowers p53, p21 (tumor suppressor genes) as well as RAD51, which repairs damage to DNA. Catecholamines may interact with genes involved in cancer via common second messenger systems. Laboratory tests reveal that the patient has a high vitamin B6 level of 100, and an abnormal amino acid profile.
Treatment of the patient includes administering an extended release CNS stimulant at an appropriate dosage to achieve the desired therapeutic effect, substantially around the clock. […]

As for `NCCc1ccc(O)c(O)c1` [Dopamine], the “effect on VEGF” value in the experiment with VEGF is “inhibit”. The “shrinkage of ovarian cancer” value in the experiment on ovarian cancer is reported as 80%.

Regarding `CC(N)Cc1ccccc1` (centres unmarked) [amphetamine], the “dendritic length and branches of pyramidal neurons in the medial prefrontal cortex” value in experiment [1] is “increase in dendritic length and branches”.

On to `Cc1ncc(COP(=O)(O)O)c(C=O)c1O` [P-5-P, pyridoxal 5′-phosphate], for which, in experiment [2], the skin picking entry is reported as “stops that same day”. Besides, the CRP entry in experiment [3] is “normal”. Moreover, the amino acid profile result in experiment [3] was “normal”; in experiment [4] (child, with around the clock stimulant, fish oil and antioxidants) it was “returns to normal”; in experiment [4] (parent, 100 mgs, with extended release CNS stimulant), “corrects”.

The values are drawn from US20100104621A1, “TREATING ADHD AND OTHER DISEASES INVOLVING INFLAMMATION” (CONNECTED HEALTH SYSTEMS, LLC, priority 2007, published 2010).
